The values that follow come from patent US7511034B2, “Dialkylhydroxybenzoic acid derivatives containing metal chelating groups and their therapeutic uses” (Samsung Electronics Co., Ltd., priority 2001, dated 2009).

A value given as a limit tells only on which side of the number the result lay.

Data set [1] in a line: Acute toxicity LD50 in rats. Conditions: rat, in vivo.
For data set [2], the system named is multilayer liposome (soybean phosphatidylcholine). The experiment in a line: Inhibition of lipid peroxidation (liposome oxidation, TBA absorbance at 532 nm). Type of data set: biochemical. The note with it: liposome oxidation initiated by FeCl2, 37° C., 15 minutes; read-out: Inhibitor Concentration (IC50). As for the experimental part:
The compounds of the present invention were tested for antioxidizing effect in terms of the repression of the radical chain reaction of a multilayer liposome.
The liposome was prepared as followings: 30 mg of commercially available soybean phosphatidylcholine (PC, Sigma Chemical Co., U.S.A.) was dissolved in 1 mL of ethanol, and 200 μL of the ethanol/PC solution was added to 10 mL of 10 mM Tris buffer including 50 mM NaCl (pH 7.0) with stirring.
The ability of a compound to inhibit oxidation of the liposome was evaluated as followings: To 400 μL of the liposomes were added the test compound (in buffer or ethanol) and histidine-FeCl3 (167:33 μM final). Oxidation was initiated by the addition of FeCl2 (33 μM final prepared in nitrogen purged water). The mixtures was shaken at 37° C. for 15 minutes. Thereafter, tubes were treated with 1 mL of 0.67% thiobabituric acid (TBA):10% trichloroacetic acid (2:1, v/v) in 0.25 N HCl solution, containing 1.5% (v/v) t-butylhydroxytoluene (BHT) to terminate oxidation. The aliquots were heated to 100° C. for 20 minutes. After ice cooling, 1 mL of chloroform was added to 1 mL supernatant from tubes and tubes were centrifuged. The absorbances of the resulting supernatant were measured at 532 nm (see: Table below).

The test system of data set [3] is ischemic neuronal degeneration. As to the kind of experiment: Protection of cell damage by ischemia (in vivo), hippocampus Cresyl violet staining. Set-up: species or system Mongolian gerbils (Meriones unguiculatus). Conditions: gerbils, 60 mg/kg P.O., 4 days reperfusion; for protective effect: 5 min carotid occlusion, pre-treated groups. As for the experimental part: Male Mongolian gerbils (Meriones unguiculatus) weighing 80-88 g were used in the present study. Each animal was medicated P.O. with vehicle, Ebselen or various test compounds (60 mg/kg in 10% DMSO), after 30 minutes ischemic injury, respectively. 20 animals were allotted into every group. The animals were placed under general anesthesia with a mixture of 2.5% isoflurane in 33% oxygen and 67% nitrous oxide. A midline ventral incision was made in the neck. Both common carotid arteries were isolated, freed of nerve fibers, and occluded using nontraumatic aneurysm clips. Complete interruption of blood flow was confirmed by observing the central artery in eyeballs using ophthalmoscope. After five minutes of occlusion, the aneurysm clips were removed from both common carotid arteries. Restoration of blood flow (reperfusion) was observed directly under the microscope. Sham-operated controls were subjected to the same surgical procedures except that common carotid arteries were not occluded. Body temperature was monitored and maintained at 37° C.±0.5° C. during surgery and during the immediate postoperative period until the animals recovered fully from anesthesia. At the designated reperfusion time (4 days), operated animals and sham animals were killed.
Animals were perfused transcardially with phosphate-buffered saline (PBS, pH 7.4) followed by 4% paraformaldehyde in 0.1 M phosphate buffer (pH 7.4) at 4 days (n=7) after surgery. The brains were removed, and postfixed in the same fixative for 4 hours. The brain tissues were cryoprotected by infiltration with 30% sucrose overnight. Cornoy fixed specimens were cut into 30 μm sections on a cryostat. The sections were sequentially stained by Cresyl violet dye.
Images of staining in the hippocampus of each animal were captured with an Applescanner. […] All data obtained from the quantitative data were analyzed using one-way ANOVA to determine statistical significance. Bonferroni's test was used for post-hoc comparisons. P values below 0.05 or 0.01 were considered statistically significant.

Data set [4] concerns rats. Conditions: oral administration; cited from earlier work.
For data set [5], the system named is mice. The note with it: oral administration; cited from earlier work.
For data set [6] the following is noted: even in the presence of an excess of glutathione (GSH); cited from earlier work.

Consider `CC(C)(C)c1cc(C(=O)Nc2nccs2)cc(C(C)(C)C)c1O` [Example 4, 3,5-Di-tert-butyl-4-hydroxy-N-thiazol-2-yl benzamide], for which the LD50 in data set [1] (ip, intraperitoneal administration in rats) is no less than 800 mg/kg. The same compound registered a 50% lethal dose (LD50) in data set [1] (oral administration in rats) of no less than 6950 mg/kg. Further, the IC50 in data set [2] was determined as 9.69 µM. Moreover, in data set [3], the protective effect worked out at 91% and the “neuroprotective effects against ischemic neuronal degeneration compared with Ebselen” value is on record as “more neuroprotective effects against ischemic neuronal degeneration than those of Ebselen”. With `O=c1c2ccccc2[se]n1-c1ccccc1` [Ebselen], the LD50 in data set [4] and in data set [5] was ≥ 6,810 mg/kg each time. For the same compound, the protective effect in data set [3] is 69%. Besides, the solubility in water result in data set [6] was “very little soluble in water”.

For the compound `Cc1cc(C(=O)NCc2ccccn2)cc(C)c1O` [Example 7, 4-Hydroxy-3,5-dimethyl-N-pyridine-2-yl methyl benzamide], in data set [2], the IC50 was found to be 300 µM. Still for that read-out and setting: as for `Cc1c(C)c2c(c(C)c1O)CCC(C)(C(=O)O)O2` (stereo not shown) [Trolox, reference compound], the figure is 10.2 µM; as for `CC(C)(C)c1cc(C(=O)Nc2ccc(O)c3ncccc23)cc(C(C)(C)C)c1O` [Example 3, 3,5-Di-tert-butyl-4-hydroxy-N-(8-hydroxyyquinolin-5-yl) benzamide], 7.79 µM; as for `CCOC(=O)c1csc(NC(=O)c2cc(C(C)(C)C)c(O)c(C(C)(C)C)c2)n1` [Example 5, 2-(3,5-Di-tert-butyl-4-hydroxy-benzoylamino)-thiazole-4-carboxylic acid ethyl ester], 11.1 µM. On to `CC(C)(C)c1cc(C(=O)Nc2ccccn2)cc(C(C)(C)C)c1O` [Example 1, 3,5-Di-tert-butyl-4-hydroxy-N-pyridin-2-yl-benzamide], for which the IC50 in data set [2] is 11.9 µM. `CC(C)(C)c1cc(C(=O)NCc2ccccn2)cc(C(C)(C)C)c1O` [Example 2, 3,5-Di-tert-butyl-4-hydroxy-N-pyridin-2-yl methyl benzamide]: the IC50 in data set [2] was found to be 12.7 µM. Still for that read-out and setting: as for `Cc1cc(C(=O)Nc2ccccn2)cc(C)c1O` [Example 6, 4-Hydroxy-3,5-dimethyl-N-pyridin-2-yl-benzamide], the figure is 122 µM.

In general, LD50 refers to the dose at which mortality reaches 50%.
